This passage reports IC50 results from article PMC5424463, “A strategy based on nucleotide specificity leads to a subfamily-selective and cell-active inhibitor of N ^6-methyladenosine demethylase FTO” (Chemical Science, 2014).

Values joined by “and” are separate entries in the source; they are usually repeats but may differ in a detail not shown here. Identical values can stand only once.

For orientation: IC50 means the midpoint of a concentration-inhibition curve.

What all share (format): biochemical
One test has as its target T1, AlkB (Escherichia coli, UniProt P05050).
T1 construct: made in house; host or cells: E. coli BL21 (DE3) Rosetta T1R
As to the kind of experiment: HPLC-based inhibition assay for AlkB, m1A-ssDNA substrate. As for the experimental part:
HPLC-based inhibition assays for AlkB and ALKBH2
The assay was modified from previously reported method.[18] A 15-mer m1A-ssDNA substrate with the sequence 5’-AAAGCAG(m1A)ATTCGAA-3 ’ (Yale University, W.M.
Keck Foundation Biotechnology Resource Laboratory) was used in this inhibition assay. The assay was performed in triplicate for each inhibitor, in a final reaction volume of 25 µL.
Reaction consisted of AlkB (1 µM) or ALKBH2 (2 µM), 2OG (50 µM), (NH4)2Fe(SO4)2·6H2O (50 µM), L-ascorbate (2 mM), m1A-ssDNA substrate (10 µM), in 50 mM HEPES buffer, pH 7.5, and inhibitor at various concentrations (final DMSO concentration not more than 1% v/v of assay mix). The reaction was incubated at 4°C for 10 min, before analysis on a bio-inert HPLC system. The m1A-ssDNA substrate and the corresponding demethylated product were separated using a Dionex DNAPac PA200 anion-exchange column (8 µm, […]) with a gradient of 98% solvent A (50 mM sodium citrate buffer, pH 5.5) to 65% solvent B (50 mM sodium citrate buffer, pH 5.5 with 1.25 M sodium chloride) over 18 min, at a flow rate of 1 mL/min at 40°C. The UV detection wavelength was set at 266 nm. The percentage inhibition was estimated based on the peak areas of the m1A-ssDNA substrate and the corresponding demethylated product. For IC50 determination, eight different concentrations of inhibitors were used (0, 1, 3, 10, 30, 100, 300, […]
different inhibitor concentrations, using nonlinear regression, with normalized dose-response fit on GraphPad Prism 6.0™. […]

A further test addresses T2, ALKBH3 (Homo sapiens, UniProt Q96Q83).
T2 construct: Human ALKBH3 (encompassing residues 1- 286); purchased ProSpec-Tany Technogene Ltd, Israel
T2 sequence (Q96Q83 1-286): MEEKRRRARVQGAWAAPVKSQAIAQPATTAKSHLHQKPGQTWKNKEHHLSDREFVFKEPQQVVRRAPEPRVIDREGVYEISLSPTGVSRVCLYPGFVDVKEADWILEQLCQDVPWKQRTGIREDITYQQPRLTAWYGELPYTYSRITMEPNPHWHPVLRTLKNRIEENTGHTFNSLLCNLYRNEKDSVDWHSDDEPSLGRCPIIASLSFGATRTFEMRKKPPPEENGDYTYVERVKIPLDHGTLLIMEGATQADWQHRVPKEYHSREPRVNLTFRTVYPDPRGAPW
As to the kind of experiment: MALDI-based inhibition assay for ALKBH3. The conditions noted are these: 8-mer ssDNA substrate. How it is done: MALDI-based inhibition assays for ALKBH3
An 8-mer m1A-ssDNA substrate with the sequence 5’-CAG(m1A)ATTC-3’ (Yale University, W.M. Keck Foundation Biotechnology Resource Laboratory) was used in this inhibition assay. The assay was performed in triplicate for each inhibitor, in a final reaction volume of 25 µL. Reaction consisted of ALKBH3 (2 µM), 2OG (150 µM), (NH4)2Fe(SO4)2·6H2O (150 µM), L-ascorbate (2 mM), […] (100 µM), in 50 mM HEPES buffer, pH 7.5, and inhibitor at various concentrations (final DMSO concentration not more than 1% v/v of assay mix). The reaction was incubated at room temperature for 30 min, before 1:1 quenching with 20% v/v formic acid. 1 uL of the diluted assay mixture was then mixed with 1 uL of 3-hydroxpicolinic acid (3-HPA, the MALDI-TOF-MS matrix, Sigma-Aldrich) and spotted onto the MALDI-TOF-MS plate before analysis. The 3-HPA matrix was prepared by mixing 9 parts of 50 mg/mL 3-hydroxpicolinic acid in 50% MeCN/Milli-Q H2O with 1 part of 50 mg/mL ammonium citrate in Milli-Q H2O.
The percentage inhibition was estimated based on the relative intensities of the methylated substrate and the demethylated product observed in the mass spectra. […]
Reaction consisted of PHD2 (4 µM), 2OG (150 µM),

Another test has as its target T3, ALKBH5 (Homo sapiens, UniProt Q6P6C2).
T3 construct: pNIC28-Bsa4 ALKBH5 (encompassing residues 66-292); made in house; host or cells: E. coli BL21 (DE3) Rosetta T1R
Put plainly: MALDI-based inhibition assay for ALKBH5, m6A-ssDNA substrate. The conditions noted are these: read-out: IC50 (ALKBH5). As for the experimental part:
MALDI-based inhibition assays for FTO and ALKBH5
The assay was modified from previously reported method.[5] An 8-mer m6A-ssDNA substrate with the sequence 5’-TCA(m6A)CAGC-3’ (Yale University, W.M. Keck Foundation Biotechnology Resource Laboratory) was used in this inhibition assay. The assay was performed in triplicate for each inhibitor, in a final reaction volume of 25 µL. Reaction […]
µM), L-ascorbate (2 mM), m6A-ssDNA substrate (100 µM), in 50 mM HEPES buffer, pH 7.5, and inhibitor at various concentrations (final DMSO concentration not more than 1% v/v of assay mix). The reaction was incubated at room temperature for 30 min, before 1:1 quenching with 20% v/v formic acid. 1 uL of the diluted assay mixture was then mixed with 1 uL of 3-hydroxpicolinic acid (3-HPA, the MALDI-TOF-MS matrix, Sigma-Aldrich) and spotted onto the MALDI-TOF-MS plate before analysis. The 3-HPA matrix was prepared by mixing 9 parts of 50 mg/mL 3-hydroxpicolinic acid in 50% MeCN/Milli-Q H2O with 1 part […]
The percentage inhibition was estimated based on the relative intensities of the methylated substrate and the demethylated product observed in the mass spectra. For IC50 determination, eight different concentrations of […]
the variation in percentage demethylation at different inhibitor concentrations, using nonlinear regression, with normalized dose-response fit on GraphPad Prism 6.0™. […]

T3 sequence (Q6P6C2 66-292): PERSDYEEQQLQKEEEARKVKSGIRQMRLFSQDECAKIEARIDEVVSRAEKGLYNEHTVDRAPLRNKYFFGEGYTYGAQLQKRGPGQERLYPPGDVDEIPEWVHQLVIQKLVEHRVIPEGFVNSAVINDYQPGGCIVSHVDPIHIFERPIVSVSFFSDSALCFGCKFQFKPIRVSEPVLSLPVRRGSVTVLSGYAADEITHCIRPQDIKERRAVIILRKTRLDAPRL
T1 sequence (P05050 12-216): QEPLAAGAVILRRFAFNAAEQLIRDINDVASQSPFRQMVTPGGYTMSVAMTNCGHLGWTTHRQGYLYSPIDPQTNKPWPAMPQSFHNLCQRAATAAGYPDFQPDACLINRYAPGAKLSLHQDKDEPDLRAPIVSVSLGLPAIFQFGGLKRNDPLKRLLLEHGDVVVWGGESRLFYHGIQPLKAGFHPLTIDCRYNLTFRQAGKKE

For the compound `O=C(O)/C=C/C(=O)NNC(=O)c1cnccc1Cc1ccccc1` [Compound 12], the IC50 amounted to 33.5 µM against AlkB, 66.2 µM on ALKBH3 and 108 µM at ALKBH5.

With `O=C(O)/C=C/C(=O)NNC(=O)c1cccnc1` [Compound 21], the half-inhibitory concentration (IC50) was 169 µM at AlkB; 115 µM against ALKBH3; 168 µM and > 100 µM on ALKBH5.

For the compound `O=C(O)C=CC(=O)NNC(=O)c1cc(Cc2ccccc2)ccn1` [Compound 22], the half-maximal inhibitory concentration (IC50) at AlkB stood at 67.1 µM; against ALKBH3, 53.5 µM; at ALKBH5, 105 µM.

For the compound `O=C(O)/C=C/C(=O)NNC(=O)c1ccccn1` [Compound 23], the concentration for half-maximal inhibition (IC50) on AlkB turned out to be 181 µM; against ALKBH3, 168 µM; at ALKBH5, 157 µM.
